Data taken from BindingDB's records for doi:10.1016/0014-2999(89)90802-9 (Virginia Commonwealth University, 1989).

Columns and labels:
[1] = molecular target: T1, 5-hydroxytryptamine receptor 3A (Rattus norvegicus, UniProt P35563)
T1 sequence (P35563 whole entry): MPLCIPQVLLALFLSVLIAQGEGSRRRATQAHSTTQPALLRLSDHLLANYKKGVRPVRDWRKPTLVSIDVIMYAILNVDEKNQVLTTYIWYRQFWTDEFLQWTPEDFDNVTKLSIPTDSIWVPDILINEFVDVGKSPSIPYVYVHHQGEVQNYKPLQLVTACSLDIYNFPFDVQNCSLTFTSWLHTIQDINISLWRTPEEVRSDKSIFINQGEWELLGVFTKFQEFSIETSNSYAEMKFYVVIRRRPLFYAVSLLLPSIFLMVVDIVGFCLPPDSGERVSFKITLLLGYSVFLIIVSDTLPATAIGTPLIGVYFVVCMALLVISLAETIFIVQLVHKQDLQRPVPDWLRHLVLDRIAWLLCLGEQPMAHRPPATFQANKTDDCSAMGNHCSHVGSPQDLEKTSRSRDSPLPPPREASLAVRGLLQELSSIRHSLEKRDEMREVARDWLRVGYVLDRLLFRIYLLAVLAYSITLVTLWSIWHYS

[2] = molecular target: 5-hydroxytryptamine receptor 1B (Rattus norvegicus, UniProt P28564)
Chain of 5-hydroxytryptamine receptor 1B (P28564 whole entry): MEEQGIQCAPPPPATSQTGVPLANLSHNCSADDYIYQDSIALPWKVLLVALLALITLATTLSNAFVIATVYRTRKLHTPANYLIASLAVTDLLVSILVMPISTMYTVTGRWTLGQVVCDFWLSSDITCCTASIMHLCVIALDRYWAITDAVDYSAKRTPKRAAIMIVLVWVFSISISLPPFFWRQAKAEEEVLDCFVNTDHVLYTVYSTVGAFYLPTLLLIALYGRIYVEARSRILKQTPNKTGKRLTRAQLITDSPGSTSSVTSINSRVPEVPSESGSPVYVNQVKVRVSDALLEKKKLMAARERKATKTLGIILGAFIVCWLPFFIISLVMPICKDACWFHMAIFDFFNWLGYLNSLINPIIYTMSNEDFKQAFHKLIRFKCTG

[3] = molecular target: 5-hydroxytryptamine receptor 2A (Rattus norvegicus, UniProt P14842)
Chain of 5-hydroxytryptamine receptor 2A (P14842 whole entry): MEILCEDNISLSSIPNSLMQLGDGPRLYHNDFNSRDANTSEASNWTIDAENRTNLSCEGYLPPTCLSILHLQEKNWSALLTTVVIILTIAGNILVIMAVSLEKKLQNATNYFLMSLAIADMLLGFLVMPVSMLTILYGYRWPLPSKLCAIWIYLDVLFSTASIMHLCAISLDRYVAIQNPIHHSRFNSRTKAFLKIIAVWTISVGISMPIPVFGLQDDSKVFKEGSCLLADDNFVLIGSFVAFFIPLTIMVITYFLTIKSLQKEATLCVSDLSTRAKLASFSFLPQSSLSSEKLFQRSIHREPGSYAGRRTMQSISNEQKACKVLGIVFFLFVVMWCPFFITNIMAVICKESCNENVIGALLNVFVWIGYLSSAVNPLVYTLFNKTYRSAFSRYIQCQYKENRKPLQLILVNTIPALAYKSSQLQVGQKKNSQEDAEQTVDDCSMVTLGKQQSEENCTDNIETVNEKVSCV

[4] = molecular target: T2, Solute carrier family 22 member 1 (Rattus norvegicus, UniProt Q63089)
T2 sequence (Q63089 whole entry): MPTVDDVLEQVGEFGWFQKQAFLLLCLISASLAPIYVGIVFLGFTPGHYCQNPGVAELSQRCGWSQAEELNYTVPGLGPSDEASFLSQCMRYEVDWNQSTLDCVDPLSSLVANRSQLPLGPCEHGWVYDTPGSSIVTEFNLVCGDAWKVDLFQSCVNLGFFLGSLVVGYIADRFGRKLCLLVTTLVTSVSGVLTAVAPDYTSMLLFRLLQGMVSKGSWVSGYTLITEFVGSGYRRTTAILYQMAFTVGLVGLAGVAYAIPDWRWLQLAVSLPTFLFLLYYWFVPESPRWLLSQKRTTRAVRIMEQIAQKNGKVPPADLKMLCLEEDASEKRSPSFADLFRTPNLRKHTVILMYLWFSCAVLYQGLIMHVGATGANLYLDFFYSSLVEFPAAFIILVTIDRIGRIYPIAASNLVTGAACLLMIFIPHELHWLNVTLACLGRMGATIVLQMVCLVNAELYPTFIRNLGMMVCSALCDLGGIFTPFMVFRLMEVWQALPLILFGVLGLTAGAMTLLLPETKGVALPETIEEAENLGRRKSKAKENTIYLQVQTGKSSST

[5] = molecular target: Beta-2 adrenergic receptor (Rattus norvegicus, UniProt P10608)
Chain of Beta-2 adrenergic receptor (P10608 whole entry): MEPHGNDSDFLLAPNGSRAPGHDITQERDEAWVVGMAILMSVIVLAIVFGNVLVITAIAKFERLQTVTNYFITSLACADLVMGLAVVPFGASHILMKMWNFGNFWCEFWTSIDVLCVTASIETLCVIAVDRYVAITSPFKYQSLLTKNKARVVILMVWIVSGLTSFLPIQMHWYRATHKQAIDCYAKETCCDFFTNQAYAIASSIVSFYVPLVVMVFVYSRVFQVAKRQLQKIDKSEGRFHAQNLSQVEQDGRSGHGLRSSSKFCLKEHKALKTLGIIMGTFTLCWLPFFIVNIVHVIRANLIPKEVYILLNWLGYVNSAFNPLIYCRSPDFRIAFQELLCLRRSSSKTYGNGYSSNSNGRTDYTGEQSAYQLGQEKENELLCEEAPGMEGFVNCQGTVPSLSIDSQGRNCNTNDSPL

[6] = molecular target: T3, Muscarinic acetylcholine receptor M2 (Rattus norvegicus, UniProt P10980)
T3 sequence (P10980 whole entry): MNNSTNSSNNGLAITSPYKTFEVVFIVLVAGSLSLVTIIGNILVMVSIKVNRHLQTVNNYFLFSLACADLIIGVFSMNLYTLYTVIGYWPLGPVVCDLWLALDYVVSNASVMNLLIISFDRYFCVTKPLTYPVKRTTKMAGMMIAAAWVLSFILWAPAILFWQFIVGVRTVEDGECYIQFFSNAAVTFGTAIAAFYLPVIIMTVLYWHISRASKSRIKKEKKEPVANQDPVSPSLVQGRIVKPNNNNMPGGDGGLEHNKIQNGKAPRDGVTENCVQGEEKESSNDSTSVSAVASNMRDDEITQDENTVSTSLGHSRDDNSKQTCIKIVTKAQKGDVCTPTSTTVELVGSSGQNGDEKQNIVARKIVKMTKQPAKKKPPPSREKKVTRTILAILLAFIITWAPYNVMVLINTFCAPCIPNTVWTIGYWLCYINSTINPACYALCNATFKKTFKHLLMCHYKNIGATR

[7] = molecular target: T4, Solute carrier family 22 member 2 (Rattus norvegicus, UniProt Q9R0W2)
T4 sequence (Q9R0W2 whole entry): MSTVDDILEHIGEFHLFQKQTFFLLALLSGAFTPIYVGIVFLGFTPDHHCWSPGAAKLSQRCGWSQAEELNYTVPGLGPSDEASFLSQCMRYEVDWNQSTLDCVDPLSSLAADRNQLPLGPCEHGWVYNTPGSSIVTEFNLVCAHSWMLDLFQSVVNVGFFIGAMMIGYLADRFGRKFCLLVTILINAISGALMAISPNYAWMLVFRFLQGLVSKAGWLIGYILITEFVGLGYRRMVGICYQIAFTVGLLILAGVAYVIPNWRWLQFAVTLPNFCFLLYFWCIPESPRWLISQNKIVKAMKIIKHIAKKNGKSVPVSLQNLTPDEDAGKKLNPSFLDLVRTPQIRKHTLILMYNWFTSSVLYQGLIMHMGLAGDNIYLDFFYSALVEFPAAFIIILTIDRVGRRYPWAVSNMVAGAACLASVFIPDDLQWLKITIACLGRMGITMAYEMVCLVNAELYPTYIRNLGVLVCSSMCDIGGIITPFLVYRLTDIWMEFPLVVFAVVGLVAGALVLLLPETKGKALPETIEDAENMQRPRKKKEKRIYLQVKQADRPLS

[8] = molecular target: T5, Alpha-1A adrenergic receptor (Rattus norvegicus, UniProt P43140)
T5 sequence (P43140 whole entry): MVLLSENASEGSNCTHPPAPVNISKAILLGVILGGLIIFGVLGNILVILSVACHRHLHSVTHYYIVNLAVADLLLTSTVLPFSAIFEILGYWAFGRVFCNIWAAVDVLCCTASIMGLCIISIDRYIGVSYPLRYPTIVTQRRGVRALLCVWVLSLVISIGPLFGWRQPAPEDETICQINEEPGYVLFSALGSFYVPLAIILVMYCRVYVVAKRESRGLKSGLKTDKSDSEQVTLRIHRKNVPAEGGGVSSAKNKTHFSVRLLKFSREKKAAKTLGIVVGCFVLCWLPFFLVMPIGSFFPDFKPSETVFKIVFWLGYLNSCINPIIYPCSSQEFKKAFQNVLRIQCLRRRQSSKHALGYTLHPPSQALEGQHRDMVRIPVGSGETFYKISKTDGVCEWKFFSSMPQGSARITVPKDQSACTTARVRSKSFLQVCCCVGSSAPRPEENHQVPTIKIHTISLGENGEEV

[9] = molecular target: T6, Alpha-2C adrenergic receptor (Rattus norvegicus, UniProt P22086)
T6 sequence (P22086 whole entry): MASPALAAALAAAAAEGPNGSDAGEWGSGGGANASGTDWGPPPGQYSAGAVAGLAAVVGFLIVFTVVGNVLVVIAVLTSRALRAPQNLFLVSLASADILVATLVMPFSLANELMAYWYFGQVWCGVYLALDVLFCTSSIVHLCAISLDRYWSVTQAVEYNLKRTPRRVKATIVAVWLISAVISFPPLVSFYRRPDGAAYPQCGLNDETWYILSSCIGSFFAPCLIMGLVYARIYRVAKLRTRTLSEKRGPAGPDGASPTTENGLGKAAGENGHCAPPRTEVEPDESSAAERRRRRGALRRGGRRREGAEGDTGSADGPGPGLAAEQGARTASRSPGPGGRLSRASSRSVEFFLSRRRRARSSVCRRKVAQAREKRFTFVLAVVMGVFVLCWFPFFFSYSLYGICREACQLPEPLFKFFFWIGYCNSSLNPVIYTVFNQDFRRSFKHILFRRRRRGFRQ

[10] = molecular target: Gamma-aminobutyric acid receptor subunit alpha-1 (Rattus norvegicus, UniProt P62813)
Chain of Gamma-aminobutyric acid receptor subunit alpha-1 (P62813 whole entry): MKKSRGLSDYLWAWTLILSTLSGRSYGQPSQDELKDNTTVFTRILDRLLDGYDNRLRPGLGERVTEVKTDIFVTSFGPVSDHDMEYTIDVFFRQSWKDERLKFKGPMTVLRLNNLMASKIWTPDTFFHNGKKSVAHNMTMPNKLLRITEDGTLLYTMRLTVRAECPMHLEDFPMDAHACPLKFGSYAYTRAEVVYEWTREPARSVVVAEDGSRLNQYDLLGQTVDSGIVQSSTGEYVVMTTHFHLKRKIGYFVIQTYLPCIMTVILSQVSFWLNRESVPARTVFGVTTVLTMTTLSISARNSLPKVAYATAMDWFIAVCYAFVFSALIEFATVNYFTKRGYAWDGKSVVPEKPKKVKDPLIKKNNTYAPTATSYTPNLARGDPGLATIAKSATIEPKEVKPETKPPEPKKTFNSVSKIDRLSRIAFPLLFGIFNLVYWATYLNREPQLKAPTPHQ

[11] = molecular target: T7, 5-hydroxytryptamine receptor 1A (Rattus norvegicus, UniProt P19327)
T7 sequence (P19327 whole entry): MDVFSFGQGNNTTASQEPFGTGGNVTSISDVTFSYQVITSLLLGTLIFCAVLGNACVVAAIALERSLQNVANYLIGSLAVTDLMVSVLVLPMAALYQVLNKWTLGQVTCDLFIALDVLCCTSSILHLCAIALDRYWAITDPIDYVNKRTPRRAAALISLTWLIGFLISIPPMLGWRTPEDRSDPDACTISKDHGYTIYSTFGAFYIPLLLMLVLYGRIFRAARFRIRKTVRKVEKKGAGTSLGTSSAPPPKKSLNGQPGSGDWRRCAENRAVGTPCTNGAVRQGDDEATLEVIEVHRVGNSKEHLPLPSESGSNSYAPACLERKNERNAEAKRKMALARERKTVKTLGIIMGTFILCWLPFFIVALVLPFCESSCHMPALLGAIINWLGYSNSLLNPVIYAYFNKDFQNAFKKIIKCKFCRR

Structure (SMILES) | Ki [1] [nM] | also measured
COc1ccccc1N1CCNCC1 | 324 | –
Clc1ccc(N2CCNCC2)cc1 | 120 | –
c1ccc(N2CCNCC2)cc1 | 430 | –
c1ccc2c(N3CCNCC3)cccc2c1 | 110 | –
c1ccc(C2CCNCC2)cc1 | 440 | –
COc1cccc2ccc(N3CCNCC3)nc12 | 360 | –
CCCN(CCC)c1ccc2ccccc2n1 | 1000 | –
c1ccc2nc(N3CCCCC3)ccc2c1 | 1000 | –
c1cnc(N2CCNCC2)nc1 [1-PP] | 4000 | –
c1ccc2nc(N3CCNCC3)ccc2c1 [2-Piperazin-1-yl-quinoline (Quipazine)] | 1.5 | Ki [2]: 200 nM; Ki [3]: 180 nM; Ki [4]: > 10000 nM; Ki [5]: 2900 nM; Ki [6]: > 10000 nM; Ki [7]: 5000 nM
COc1ccc(N2CCNCC2)cc1 [4-METHOXYPHENYLPIPERAZINE] | 340 | –
COc1cccc2ccc(N3CCN(C)CC3)nc12 [8-Methoxy-N-methylquipazine] | 440 | –
Clc1cncc(N2CCNCC2)n1 [L-630,571] | 29 | –
CCCN1CCN(c2ccc3ccccc3n2)CC1 [N-Propylquipazine] | 15 | –
CN(C)C[C@@H]1C2CCC(CC2)[C@@H]1c1ccc(Cl)c(Cl)c1 [NSC_398] | 30 | –
CN1CCN(c2nc3ccccc3c(=O)[nH]2)CC1 [NSC_63211] | 270 | –
Cc1cccc2ccc(N3CCNCC3)nc12 [QUIPAZINE,8-Me] | 4.7 | Ki [8]: > 10000 nM; Ki [2]: > 10000 nM; Ki [3]: 550 nM; Ki [9]: 3800 nM; Ki [10]: > 10000 nM; Ki [5]: > 10000 nM; Ki [6]: > 10000 nM; Ki [11]: 1700 nM
Clc1cccc(N2CCNCC2)c1 [mCPP] | 20 | –
